Reference: paper PMC9235892 (Virulence, 2022)

Test system: SARS-CoV-2 169 R
Type: cell-based

Compound | effect on viral load in 169 R-infected cultures (plaque assay)
CN1CCN(C[C@@H](O)CO[C@H]2CC[C@@]3(C)C(CCC4C3CC[C@]3(C)C(=O)CCC43)C2)CC1 (some centres unmarked) [LNB169] | no reduction in viral load
CN1CCN(C[C@H](O)CO[C@H]2CC[C@@]3(C)C(CCC4C3CC[C@]3(C)C(=O)CCC43)C2)CC1 (some centres unmarked) [LNB167] | no reduction in viral load
